Laboratory results as given in ChEMBL document CHEMBL5291721, “A preclinical secondary pharmacology resource illuminates target-adverse drug reaction associations of marketed drugs” (Nat Commun, 2023).

What was measured:
Adenosine receptor A1 = target: T1, Adenosine receptor A1 (Homo sapiens, UniProt P30542)
T1 sequence (P30542 whole entry): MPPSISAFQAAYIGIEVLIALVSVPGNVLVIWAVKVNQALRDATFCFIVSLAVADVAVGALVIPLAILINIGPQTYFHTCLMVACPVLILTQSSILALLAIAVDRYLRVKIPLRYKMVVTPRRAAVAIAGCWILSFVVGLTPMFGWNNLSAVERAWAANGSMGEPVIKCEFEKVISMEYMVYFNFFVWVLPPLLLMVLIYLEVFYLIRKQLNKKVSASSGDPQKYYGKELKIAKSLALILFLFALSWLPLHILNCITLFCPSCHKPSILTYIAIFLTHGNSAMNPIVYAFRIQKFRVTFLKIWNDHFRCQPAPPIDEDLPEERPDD

[1] = target: Sodium channel protein type 5 subunit alpha (Homo sapiens, UniProt Q14524); format: functional, cell-based
Sequence of Sodium channel protein type 5 subunit alpha (Q14524 whole entry): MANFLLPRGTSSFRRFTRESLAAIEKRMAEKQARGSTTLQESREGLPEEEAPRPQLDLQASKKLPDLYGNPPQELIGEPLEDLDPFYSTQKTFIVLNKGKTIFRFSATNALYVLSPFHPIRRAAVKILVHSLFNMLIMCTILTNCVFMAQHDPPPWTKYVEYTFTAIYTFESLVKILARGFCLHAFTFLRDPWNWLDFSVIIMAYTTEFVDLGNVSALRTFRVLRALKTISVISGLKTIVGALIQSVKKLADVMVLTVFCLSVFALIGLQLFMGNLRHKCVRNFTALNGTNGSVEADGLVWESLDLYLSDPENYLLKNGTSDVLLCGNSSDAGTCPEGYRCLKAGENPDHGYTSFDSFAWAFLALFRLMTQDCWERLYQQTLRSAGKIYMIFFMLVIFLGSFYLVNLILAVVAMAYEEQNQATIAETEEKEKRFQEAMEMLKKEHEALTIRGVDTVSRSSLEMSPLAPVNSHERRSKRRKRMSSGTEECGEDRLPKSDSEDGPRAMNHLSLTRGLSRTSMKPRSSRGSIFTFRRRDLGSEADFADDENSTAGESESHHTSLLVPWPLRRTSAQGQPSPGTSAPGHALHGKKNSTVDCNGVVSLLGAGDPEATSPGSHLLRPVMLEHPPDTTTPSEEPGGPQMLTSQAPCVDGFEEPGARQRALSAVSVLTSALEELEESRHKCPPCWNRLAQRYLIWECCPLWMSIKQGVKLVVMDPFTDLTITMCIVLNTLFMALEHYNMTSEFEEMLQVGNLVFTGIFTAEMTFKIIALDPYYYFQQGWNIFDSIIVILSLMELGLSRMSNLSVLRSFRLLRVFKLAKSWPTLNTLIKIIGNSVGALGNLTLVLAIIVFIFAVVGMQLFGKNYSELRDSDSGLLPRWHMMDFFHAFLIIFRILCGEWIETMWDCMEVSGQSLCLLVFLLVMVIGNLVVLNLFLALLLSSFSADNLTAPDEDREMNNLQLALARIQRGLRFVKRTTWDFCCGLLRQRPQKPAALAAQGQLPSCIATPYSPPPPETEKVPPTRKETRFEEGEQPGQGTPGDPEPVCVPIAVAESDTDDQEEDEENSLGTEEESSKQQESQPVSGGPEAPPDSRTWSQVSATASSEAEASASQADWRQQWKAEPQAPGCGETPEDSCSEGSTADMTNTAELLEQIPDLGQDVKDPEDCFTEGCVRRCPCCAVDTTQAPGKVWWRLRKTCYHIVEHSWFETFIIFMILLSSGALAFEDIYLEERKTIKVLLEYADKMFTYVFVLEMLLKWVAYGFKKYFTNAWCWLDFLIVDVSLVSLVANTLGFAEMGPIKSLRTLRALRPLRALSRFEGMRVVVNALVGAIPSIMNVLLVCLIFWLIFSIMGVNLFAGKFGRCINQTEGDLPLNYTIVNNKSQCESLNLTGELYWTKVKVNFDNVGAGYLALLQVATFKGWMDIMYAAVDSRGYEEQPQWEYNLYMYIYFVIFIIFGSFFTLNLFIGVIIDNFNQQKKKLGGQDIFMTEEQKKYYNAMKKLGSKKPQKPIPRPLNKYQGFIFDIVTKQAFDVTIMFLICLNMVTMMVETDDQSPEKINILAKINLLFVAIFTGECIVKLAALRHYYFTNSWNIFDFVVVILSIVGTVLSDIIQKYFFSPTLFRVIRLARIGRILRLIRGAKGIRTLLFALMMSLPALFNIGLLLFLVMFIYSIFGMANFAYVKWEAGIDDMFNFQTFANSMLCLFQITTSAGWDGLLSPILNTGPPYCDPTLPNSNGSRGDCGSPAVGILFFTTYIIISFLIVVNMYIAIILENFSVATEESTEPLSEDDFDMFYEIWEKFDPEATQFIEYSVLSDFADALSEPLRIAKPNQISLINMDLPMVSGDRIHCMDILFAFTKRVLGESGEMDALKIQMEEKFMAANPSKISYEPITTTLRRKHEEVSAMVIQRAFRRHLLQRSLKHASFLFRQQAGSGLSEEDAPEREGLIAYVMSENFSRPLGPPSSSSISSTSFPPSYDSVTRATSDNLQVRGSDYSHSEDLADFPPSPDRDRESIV

[2] = target: Hydroxycarboxylic acid receptor 2 (Homo sapiens, UniProt Q8TDS4)
Sequence of Hydroxycarboxylic acid receptor 2 (Q8TDS4 whole entry): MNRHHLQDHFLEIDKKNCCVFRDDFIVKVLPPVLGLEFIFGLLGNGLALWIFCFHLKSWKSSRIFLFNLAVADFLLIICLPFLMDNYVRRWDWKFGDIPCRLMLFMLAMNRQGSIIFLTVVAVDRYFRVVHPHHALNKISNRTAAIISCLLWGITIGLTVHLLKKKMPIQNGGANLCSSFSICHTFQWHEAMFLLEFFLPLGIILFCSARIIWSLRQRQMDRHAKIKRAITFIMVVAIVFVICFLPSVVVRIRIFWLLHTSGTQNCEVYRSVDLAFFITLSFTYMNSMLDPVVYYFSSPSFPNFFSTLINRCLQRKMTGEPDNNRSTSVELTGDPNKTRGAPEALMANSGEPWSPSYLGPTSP

Thromboxane A2 receptor [3] = target: T2, Thromboxane A2 receptor (Homo sapiens, UniProt P21731); format: functional
T2 sequence (P21731 whole entry): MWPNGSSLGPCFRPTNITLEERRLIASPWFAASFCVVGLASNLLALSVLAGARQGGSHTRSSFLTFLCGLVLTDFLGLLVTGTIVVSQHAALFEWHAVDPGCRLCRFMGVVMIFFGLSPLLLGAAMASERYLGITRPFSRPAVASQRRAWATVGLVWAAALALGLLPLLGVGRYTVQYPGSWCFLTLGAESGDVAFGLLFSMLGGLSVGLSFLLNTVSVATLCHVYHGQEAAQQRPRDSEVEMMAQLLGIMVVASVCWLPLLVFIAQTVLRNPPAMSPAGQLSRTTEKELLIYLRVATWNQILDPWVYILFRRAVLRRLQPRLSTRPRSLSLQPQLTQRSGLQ

Thromboxane A2 receptor [4] = target: T2, Thromboxane A2 receptor; format: functional, cell-based
Acetylcholinesterase = Acetylcholinesterase (Homo sapiens, UniProt P22303); format: functional
Sequence of Acetylcholinesterase (P22303 whole entry): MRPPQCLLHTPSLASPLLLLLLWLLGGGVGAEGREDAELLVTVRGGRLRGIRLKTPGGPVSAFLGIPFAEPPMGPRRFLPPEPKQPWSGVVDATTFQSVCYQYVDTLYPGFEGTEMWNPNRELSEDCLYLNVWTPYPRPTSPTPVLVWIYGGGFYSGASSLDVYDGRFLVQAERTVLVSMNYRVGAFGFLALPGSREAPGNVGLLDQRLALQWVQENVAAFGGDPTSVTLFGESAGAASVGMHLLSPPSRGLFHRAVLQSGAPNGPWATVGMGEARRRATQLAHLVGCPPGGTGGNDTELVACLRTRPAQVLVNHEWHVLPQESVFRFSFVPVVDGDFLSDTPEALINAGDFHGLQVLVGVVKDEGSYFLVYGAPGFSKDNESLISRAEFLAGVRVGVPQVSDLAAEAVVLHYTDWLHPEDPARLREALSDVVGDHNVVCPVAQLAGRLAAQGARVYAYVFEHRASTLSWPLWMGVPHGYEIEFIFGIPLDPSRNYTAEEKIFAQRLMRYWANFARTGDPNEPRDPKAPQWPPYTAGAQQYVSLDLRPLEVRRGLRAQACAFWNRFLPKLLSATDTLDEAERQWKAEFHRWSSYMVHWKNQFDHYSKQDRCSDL

Androgen receptor [5] = target: T3, Androgen receptor (Rattus norvegicus, UniProt P15207); format: functional
T3 sequence (P15207 whole entry): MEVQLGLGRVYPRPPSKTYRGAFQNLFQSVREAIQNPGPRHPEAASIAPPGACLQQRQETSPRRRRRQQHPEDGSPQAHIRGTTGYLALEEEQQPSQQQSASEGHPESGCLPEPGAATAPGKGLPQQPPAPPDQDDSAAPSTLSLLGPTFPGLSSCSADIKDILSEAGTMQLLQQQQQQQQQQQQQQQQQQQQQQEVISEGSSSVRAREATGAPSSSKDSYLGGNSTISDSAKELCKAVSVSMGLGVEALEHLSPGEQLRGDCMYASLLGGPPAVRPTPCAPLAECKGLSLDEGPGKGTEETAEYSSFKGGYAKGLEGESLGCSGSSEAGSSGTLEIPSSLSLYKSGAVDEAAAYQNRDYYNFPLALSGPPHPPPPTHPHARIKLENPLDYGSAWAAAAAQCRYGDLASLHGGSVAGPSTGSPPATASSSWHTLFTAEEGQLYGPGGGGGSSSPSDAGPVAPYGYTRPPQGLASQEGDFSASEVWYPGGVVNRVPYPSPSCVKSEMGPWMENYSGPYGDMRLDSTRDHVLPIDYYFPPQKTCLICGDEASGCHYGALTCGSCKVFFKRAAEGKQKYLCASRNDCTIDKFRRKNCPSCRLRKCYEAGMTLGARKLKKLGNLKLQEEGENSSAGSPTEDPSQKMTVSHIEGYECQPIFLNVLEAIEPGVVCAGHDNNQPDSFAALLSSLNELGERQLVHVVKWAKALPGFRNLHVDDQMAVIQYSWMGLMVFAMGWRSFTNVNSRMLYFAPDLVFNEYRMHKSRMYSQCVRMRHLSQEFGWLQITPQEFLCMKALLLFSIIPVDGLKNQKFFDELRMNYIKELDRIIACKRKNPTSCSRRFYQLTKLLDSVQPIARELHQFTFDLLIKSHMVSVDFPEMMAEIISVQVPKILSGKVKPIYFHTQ

[6] = target: Gamma-aminobutyric acid type B receptor subunit 1 (Homo sapiens, UniProt Q9UBS5)
Sequence of Gamma-aminobutyric acid type B receptor subunit 1 (Q9UBS5 whole entry): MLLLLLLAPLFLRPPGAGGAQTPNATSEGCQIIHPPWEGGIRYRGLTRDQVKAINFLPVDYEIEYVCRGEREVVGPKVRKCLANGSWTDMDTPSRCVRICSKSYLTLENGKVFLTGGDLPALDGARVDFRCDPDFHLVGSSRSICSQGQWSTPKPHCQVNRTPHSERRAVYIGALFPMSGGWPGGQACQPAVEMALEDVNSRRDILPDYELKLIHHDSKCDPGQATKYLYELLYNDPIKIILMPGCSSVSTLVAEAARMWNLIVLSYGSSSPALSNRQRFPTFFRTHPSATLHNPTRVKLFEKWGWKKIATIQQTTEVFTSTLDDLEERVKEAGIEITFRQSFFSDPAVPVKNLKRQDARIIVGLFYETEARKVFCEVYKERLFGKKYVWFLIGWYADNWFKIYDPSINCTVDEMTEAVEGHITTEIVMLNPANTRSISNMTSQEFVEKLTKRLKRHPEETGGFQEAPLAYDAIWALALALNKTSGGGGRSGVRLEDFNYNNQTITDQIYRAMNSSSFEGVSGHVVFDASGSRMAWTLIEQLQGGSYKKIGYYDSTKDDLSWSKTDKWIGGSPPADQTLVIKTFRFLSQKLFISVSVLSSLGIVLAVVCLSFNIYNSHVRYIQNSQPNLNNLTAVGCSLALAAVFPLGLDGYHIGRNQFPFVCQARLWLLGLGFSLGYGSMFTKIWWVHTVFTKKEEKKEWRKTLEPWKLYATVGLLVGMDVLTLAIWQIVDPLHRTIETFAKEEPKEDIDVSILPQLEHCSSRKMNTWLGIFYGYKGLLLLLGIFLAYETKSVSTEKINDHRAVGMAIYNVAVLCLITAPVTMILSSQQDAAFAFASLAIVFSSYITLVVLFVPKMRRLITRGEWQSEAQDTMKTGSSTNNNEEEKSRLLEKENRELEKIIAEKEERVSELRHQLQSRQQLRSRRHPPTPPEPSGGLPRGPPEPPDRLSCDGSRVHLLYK

Cannabinoid receptor 1 = Cannabinoid receptor 1 (Homo sapiens, UniProt P21554); format: functional
[7] = target: 5-hydroxytryptamine receptor 7 (Homo sapiens, UniProt P34969)
Sequence of 5-hydroxytryptamine receptor 7 (P34969 whole entry): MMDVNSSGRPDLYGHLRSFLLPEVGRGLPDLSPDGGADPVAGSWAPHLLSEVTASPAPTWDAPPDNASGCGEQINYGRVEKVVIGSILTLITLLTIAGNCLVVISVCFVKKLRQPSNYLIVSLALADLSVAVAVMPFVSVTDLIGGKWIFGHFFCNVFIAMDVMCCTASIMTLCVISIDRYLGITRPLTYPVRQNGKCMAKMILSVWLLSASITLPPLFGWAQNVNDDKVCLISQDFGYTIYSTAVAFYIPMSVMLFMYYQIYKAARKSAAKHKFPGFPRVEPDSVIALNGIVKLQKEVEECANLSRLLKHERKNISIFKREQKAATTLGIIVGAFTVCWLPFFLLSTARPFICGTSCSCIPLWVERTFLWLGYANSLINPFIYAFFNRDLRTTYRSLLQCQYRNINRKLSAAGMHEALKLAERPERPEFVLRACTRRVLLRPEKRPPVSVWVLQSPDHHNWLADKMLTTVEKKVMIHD

D(1B) dopamine receptor = D(1B) dopamine receptor (Homo sapiens, UniProt P21918)
Sequence of D(1B) dopamine receptor (P21918 whole entry): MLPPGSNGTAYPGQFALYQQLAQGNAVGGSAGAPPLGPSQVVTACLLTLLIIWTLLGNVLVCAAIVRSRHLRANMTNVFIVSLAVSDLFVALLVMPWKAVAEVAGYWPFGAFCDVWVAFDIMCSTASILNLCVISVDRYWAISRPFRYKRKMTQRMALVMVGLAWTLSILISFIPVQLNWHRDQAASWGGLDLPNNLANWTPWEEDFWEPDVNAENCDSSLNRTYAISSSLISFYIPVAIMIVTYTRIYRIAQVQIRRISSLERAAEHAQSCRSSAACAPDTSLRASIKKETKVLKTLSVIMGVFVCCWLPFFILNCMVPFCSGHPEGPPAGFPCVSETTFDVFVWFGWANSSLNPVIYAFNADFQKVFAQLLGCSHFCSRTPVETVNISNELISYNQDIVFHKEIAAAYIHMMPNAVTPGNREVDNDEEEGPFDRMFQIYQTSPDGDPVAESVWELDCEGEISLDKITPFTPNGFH

[8] = target: 5-hydroxytryptamine receptor 6 (Homo sapiens, UniProt P50406)
[9] = target: T4, Muscarinic acetylcholine receptor M5 (Homo sapiens, UniProt P08912)
T4 sequence (P08912 whole entry): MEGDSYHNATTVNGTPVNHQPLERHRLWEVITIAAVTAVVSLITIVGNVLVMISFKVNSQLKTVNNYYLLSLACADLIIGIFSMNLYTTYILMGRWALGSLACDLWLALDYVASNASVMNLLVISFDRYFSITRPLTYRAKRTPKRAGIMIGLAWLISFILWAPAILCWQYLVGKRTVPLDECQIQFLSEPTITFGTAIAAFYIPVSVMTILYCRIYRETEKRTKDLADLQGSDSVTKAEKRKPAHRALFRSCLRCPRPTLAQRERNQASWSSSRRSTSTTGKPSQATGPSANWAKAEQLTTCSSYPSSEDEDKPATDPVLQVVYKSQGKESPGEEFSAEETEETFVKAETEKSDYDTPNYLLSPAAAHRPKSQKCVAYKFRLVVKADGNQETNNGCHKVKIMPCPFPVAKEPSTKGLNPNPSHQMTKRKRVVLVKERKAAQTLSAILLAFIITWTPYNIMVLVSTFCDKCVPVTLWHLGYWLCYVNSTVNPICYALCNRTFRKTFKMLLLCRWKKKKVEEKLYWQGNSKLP

[10] = target: Rod cGMP-specific 3',5'-cyclic phosphodiesterase subunit alpha (Homo sapiens, UniProt P16499); format: functional
Androgen receptor [11] = target: T3, Androgen receptor
[12] = target: Voltage-dependent L-type calcium channel subunit alpha-1C (Homo sapiens, UniProt Q13936); format: functional, cell-based
Further: assay procedure not described here.

CC1(C)NC(=O)N(c2ccc([N+](=O)[O-])c(C(F)(F)F)c2)C1=O [NILUTAMIDE]
AC50 (Adenosine receptor A1): > 30 µM

CCOC(=O)[C@H](CCc1ccccc1)N[C@@H](C)C(=O)N1[C@H](C(=O)O)C[C@@H]2CCC[C@@H]21
AC50 [1]: > 30 µM
AC50 [2]: > 10 µM

CC(C)C[C@H]1C(=O)N2CCC[C@H]2[C@]2(O)O[C@](NC(=O)[C@@H]3C=C4c5cccc6[nH]c(Br)c(c56)C[C@H]4N(C)C3)(C(C)C)C(=O)N12 [BROMOCRIPTINE]
AC50 (Thromboxane A2 receptor [3]): > 30 µM
AC50 (Thromboxane A2 receptor [4]): > 30 µM
AC50 (Acetylcholinesterase): > 30 µM

CC(=O)Nc1ccc(O)cc1 [ACETAMINOPHEN]
AC50 (Androgen receptor [5]): > 30 µM

COCCCN1CCC(NC(=O)c2cc(Cl)c(N)c3c2OCC3)CC1 [PRUCALOPRIDE]
AC50 (Adenosine receptor A1): > 30 µM

C[C@@H](O)[C@H]1C(=O)N2C(C(=O)O)=C(S[C@@H]3CN[C@H](C(=O)N(C)C)C3)[C@H](C)[C@H]12 [MEROPENEM]
AC50 (Thromboxane A2 receptor [3]): > 300 µM
AC50 (Thromboxane A2 receptor [4]): > 300 µM
AC50 (Acetylcholinesterase): > 300 µM

CCOC(=O)[C@H](CCc1ccccc1)N[C@@H](C)C(=O)N1[C@H](C(=O)O)C[C@H]2CCCC[C@@H]21 [TRANDOLAPRIL]
AC50 (Adenosine receptor A1): > 30 µM

Cc1cn([C@H]2C[C@H](N=[N+]=[N-])[C@@H](CO)O2)c(=O)[nH]c1=O [ZIDOVUDINE]
AC50 [1]: > 30 µM
AC50 [2]: > 10 µM
AC50 [6]: > 10 µM

CN(C)CCC(c1ccc(Cl)cc1)c1ccccn1 (stereo not drawn) [CHLORPHENIRAMINE]
AC50 (Cannabinoid receptor 1): > 10 µM
AC50 [7]: > 10 µM
AC50 (D(1B) dopamine receptor): > 10 µM
AC50 [1]: > 30 µM
AC50 [8]: > 10 µM
AC50 [9]: 6.12 µM
AC50 [10]: > 10 µM

N[C@@H]1[C@H]2CN(c3nc4c(cc3F)c(=O)c(C(=O)O)cn4-c3ccc(F)cc3F)C[C@@H]12 [TROVAFLOXACIN]
AC50 (Thromboxane A2 receptor [3]): > 30 µM
AC50 (Thromboxane A2 receptor [4]): > 30 µM
AC50 (Androgen receptor [5]): > 30 µM
AC50 (Acetylcholinesterase): > 30 µM

Cc1cc(C#N)cc(C)c1Oc1nc(Nc2ccc(C#N)cc2)nc(N)c1Br [ETRAVIRINE]
AC50 (Adenosine receptor A1): 22.5 µM

c1cnc(N2CCN(Cc3ccc4c(c3)OCO4)CC2)nc1 [PIRIBEDIL]
AC50 (Thromboxane A2 receptor [3]): > 30 µM
AC50 (Thromboxane A2 receptor [4]): > 30 µM
AC50 (Acetylcholinesterase): > 30 µM

NS(=O)(=O)Cc1noc2ccccc12 [ZONISAMIDE]
AC50 (Androgen receptor [11]): > 10 µM

CCCN1C[C@H](CSC)C[C@@H]2c3cccc4[nH]cc(c34)C[C@H]21 [PERGOLIDE]
AC50 [6]: > 10 µM

COc1ccccc1OCC(O)CN1CCN(CC(=O)Nc2c(C)cccc2C)CC1 (stereo not drawn) [RANOLAZINE]
AC50 [12]: > 50 µM

CC1=C(C(=O)O)N2C(=O)[C@@H](NC(=O)[C@H](N)c3ccccc3)[C@H]2SC1 [CEPHALEXIN ANHYDROUS]
AC50 [2]: > 10 µM

O=C(OCC(O)CO)c1ccccc1Nc1ccnc2cc(Cl)ccc12 (stereo not drawn) [GLAFENINE]
AC50 (Thromboxane A2 receptor [3]): > 30 µM
AC50 (Thromboxane A2 receptor [4]): 9.8 µM
AC50 (Androgen receptor [5]): > 30 µM
AC50 (Acetylcholinesterase): > 30 µM
